The values that follow come from patent US12583866B2, “Pyrido[2,3-b][1,4]oxazines or tetrahydropyrido[2,3-b][1,4]oxazepines as IAP antagonists” (BEIGENE, LTD., priority 2020, dated 2026).

By IC50 is commonly meant the concentration needed to halve the response being measured.

Assay [1] addresses T1, recombinant human cIAP2-BIR3 protein (Homo sapiens, UniProt Q13489).
T1 construct: recombinant human cIAP2-BIR3 protein; purchased Reaction biology APT-11-372
The experiment in a line: Recombinant human c-IAP2-BIR3 biochemical assay (HTRF, peptide displacement). To be noted: 3.7 nM cIAP2-BIR3, 3.7 nM AbuRPF-K(5-Fam)-NH2 peptide, read-out: Protein binding IC50 (nM) c-IAP2. Put shortly:
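HTRF peptide-displacement readout (ex337, em520/490 ratio) after sequential 1 h room-temperature steps: compound with 3.7 nM protein, then 3.7 nM 5-Fam-labelled AbuRPF peptide, then Tb-cryptate anti-6His antibody. Buffer pH 7.5 HEPES with NaCl, Tween-20, DTT; 10-point 4-fold dilutions from 10 uM; four-parameter logistic IC50.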

Assay [2] addresses T2, recombinant human cIAP1-BIR3 protein (Homo sapiens, UniProt Q13490).
T2 construct: recombinant human cIAP1-BIR3 protein; purchased Reaction biology APT-11-370
The experiment in a line: Recombinant human c-IAP1-BIR3 biochemical assay (HTRF, peptide displacement). Conditions: 1.2 nM cIAP1-BIR3, 3 nM AbuRPF-K(5-Fam)-NH2 peptide, read-out: Protein binding IC50 (nM) c-IAP1. Put shortly:
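HTRF peptide displacement: after 1 h compound pre-incubation (max 10 uM, 4-fold dilutions, 10 points) with 1.2 nM protein in HEPES pH 7.5 buffer, 3 nM 5-Fam-labelled AbuRPF-K peptide and Tb-anti-6His were each added for 1 h at room temperature. Inhibition taken from 520/490 nm ratio, fitted four-parameter logistic for IC50.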
On the technique in general: In TR-FRET formats the signal depends on donor and acceptor labels being close together.

The target in assay [3] is T3, recombinant human XIAP-BIR3 protein (Homo sapiens, UniProt P98170).
T3 construct: recombinant human XIAP-BIR3 protein; purchased Reaction biology APT-11-374
T3 sequence (P98170 241-356 limits assumed): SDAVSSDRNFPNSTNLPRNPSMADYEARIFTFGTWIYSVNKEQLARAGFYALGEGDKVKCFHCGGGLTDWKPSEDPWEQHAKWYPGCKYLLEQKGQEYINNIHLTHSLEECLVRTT
As to the kind of experiment: Recombinant human XIAP-BIR3 biochemical assay (HTRF, peptide displacement). To be noted: 3.7 nM XIAP-BIR3, 7.6 nM AbuRPF-K(5-Fam)-NH2 peptide, read-out: Protein binding IC50 (nM) XIAP. Put shortly:
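HTRF peptide displacement with 7.6 nM 5-Fam-labelled AbuRPF peptide, anti-6His Tb donor and 3.7 nM recombinant XIAP-BIR3. Protein and compound (10-point, 4-fold from 10 µM) were preincubated 1 h RT in HEPES pH 7.5 buffer before each addition, each 1 h. IC50 by four-parameter fit of the 520/490 nm ratio.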

T1 sequence (Q13489 238-349 limits assumed): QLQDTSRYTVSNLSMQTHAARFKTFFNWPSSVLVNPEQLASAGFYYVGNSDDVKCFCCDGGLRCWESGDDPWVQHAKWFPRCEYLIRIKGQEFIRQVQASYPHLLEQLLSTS
T2 sequence (Q13490 253-363 limits assumed): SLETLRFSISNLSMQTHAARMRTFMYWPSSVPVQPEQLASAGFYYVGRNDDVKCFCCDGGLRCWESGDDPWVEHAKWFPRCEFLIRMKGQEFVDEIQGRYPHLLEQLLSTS

Turning to `C[C@@H]1CN(CC(=O)N2c3cc(Cc4ccc(F)cc4)cnc3OC[C@@H]2Cc2ccccc2)[C@@H](CN2CCOC[C@H]2C)CN1` [Compound 29, 1-((S)-2-benzyl-7-(4-fluorobenzyl)-2,3-dihydro-1H-pyrido[2,3-b][1,4]oxazin-1-yl)-2-((2R,5R)-5-methyl-2-(((R)-3-methylmorpholino)methyl)piperazin-1-yl)ethan-1-one], the IC50 turned out to be 0.32 nM in assay [1], 0.24 nM in assay [2] and 22 nM in assay [3].
For `Cc1ccc([C@H]2COc3ncc(Cc4ccc(F)cc4)cc3N2C(=O)CN2C[C@@H](C)NC[C@@H]2CN2CCOC[C@H]2C)cc1` [Compound 30, 1-((S)-7-(4-fluorobenzyl)-2-(p-tolyl)-2,3-dihydro-1H-pyrido[2,3-b][1,4]oxazin-1-yl)-2-((2R,5R)-5-methyl-2-(((R)-3-methylmorpholino)methyl)piperazin-1-yl)ethan-1-one], the IC50 in assay [1] was 0.72 nM; in assay [2] it was 0.35 nM; in assay [3] it was 7.3 nM.
In the same order, the values of `C[C@@H]1CN(CC(=O)N2c3cc(Cc4ccc(F)cc4)c(C(N)=O)nc3OC[C@@H]2C)[C@@H](CN2CCOC[C@H]2C)CN1` [Compound 31, (S)-7-(4-fluorobenzyl)-2-methyl-1-(2-((2R,5R)-5-methyl-2-(((R)-3-methylmorpholino)methyl)piperazin-1-yl)acetyl)-2,3-dihydro-1H-pyrido[2,3-b][1,4]oxazine-6-carboxamide] are 0.71 nM, 0.33 nM and 5.6 nM.
As to `C[C@@H]1CN(CC(=O)N2c3cc(Cc4ccc(F)cc4)c(C(N)=O)nc3OC[C@@H]2C)[C@@H](CN2[C@H](C)COC[C@H]2C)CN1` [Compound 32, (S)-1-(2-((2R,5R)-2-(((3R,5R)-3,5-dimethylmorpholino)methyl)-5-methylpiperazin-1-yl)acetyl)-7-(4-fluorobenzyl)-2-methyl-2,3-dihydro-1H-pyrido[2,3-b][1,4]oxazine-6-carboxamide], the values for the IC50 in assay [1], in assay [2] and in assay [3] were 0.36 nM, 0.25 nM and 5.8 nM, respectively.
As to `CC(C)C[C@H]1COc2ncc(Cc3ccc(F)cc3)cc2N1C(=O)CN1C[C@@H](C)NC[C@@H]1CN1CCOC[C@H]1C` [Compound 33], the figures for the half-maximal inhibitory concentration (IC50) in assay [1], in assay [2] and in assay [3] were 1.8 nM, 0.74 nM and 47 nM, respectively.
`COC[C@H]1COc2ncc(Cc3ccc(F)cc3)cc2N1C(=O)CN1C[C@@H](C)NC[C@@H]1CN1[C@H](C)COC[C@H]1C` [Compound 34, 2-((2R,5R)-2-(((3R,5R)-3,5-dimethylmorpholino)methyl)-5-methylpiperazin-1-yl)-1-((S)-7-(4-fluorobenzyl)-2-(methoxymethyl)-2,3-dihydro-1H-pyrido[2,3-b][1,4]oxazin-1-yl)ethan-1-one]: the IC50 in assay [1] was 0.32 nM; in assay [2], 0.25 nM; in assay [3], 23 nM.
The like results for `COC[C@H]1COc2ncc(Cc3ccc(F)cc3)cc2N1C(=O)CN1C[C@@H](C)NC[C@@H]1CN1CCOC[C@H]1C` [Compound 35, 1-((S)-7-(4-fluorobenzyl)-2-(methoxymethyl)-2,3-dihydro-1H-pyrido[2,3-b][1,4]oxazin-1-yl)-2-((2R,5R)-5-methyl-2-(((R)-3-methylmorpholino)methyl)piperazin-1-yl)ethan-1-one] were, in that order, 0.99 nM, 0.33 nM and 46 nM.
Consider `CCOC[C@H]1COc2ncc(Cc3ccc(F)cc3)cc2N1C(=O)CN1C[C@@H](C)NC[C@@H]1CN1[C@H](C)COC[C@H]1C` [Compound 36], for which the IC50 in assay [1] came to 0.8 nM; in assay [2], 0.42 nM; in assay [3], 50 nM.
The like results for `CCOC[C@H]1COc2ncc(Cc3ccc(F)cc3)cc2N1C(=O)CN1C[C@@H](C)NC[C@@H]1CN1CCOC[C@H]1C` [Compound 37, 1-((S)-2-(ethoxymethyl)-7-(4-fluorobenzyl)-2,3-dihydro-1H-pyrido[2,3-b][1,4]oxazin-1-yl)-2-((2R,5R)-5-methyl-2-(((R)-3-methylmorpholino)methyl)piperazin-1-yl)ethan-1-one] were, in that order, 0.66 nM, 0.29 nM and 43 nM.
In the same order, the values of `CC(C)OC[C@H]1COc2ncc(Cc3ccc(F)cc3)cc2N1C(=O)CN1C[C@@H](C)NC[C@@H]1CN1CCOC[C@H]1C` [Compound 38, 1-((S)-7-(4-fluorobenzyl)-2-(isopropoxymethyl)-2,3-dihydro-1H-pyrido[2,3-b][1,4]oxazin-1-yl)-2-((2R,5R)-5-methyl-2-(((R)-3-methylmorpholino)methyl)piperazin-1-yl)ethan-1-one] are 0.83 nM, 0.26 nM and 49 nM.
In the same order, the values of `CC(C)OC[C@H]1COc2ncc(Cc3ccc(F)cc3)cc2N1C(=O)CN1C[C@@H](C)NC[C@@H]1CN1[C@H](C)COC[C@H]1C` [Compound 39, 2-((2R,5R)-2-(((3R,5R)-3,5-dimethylmorpholino)methyl)-5-methylpiperazin-1-yl)-1-((S)-7-(4-fluorobenzyl)-2-(isopropoxymethyl)-2,3-dihydro-1H-pyrido[2,3-b][1,4]oxazin-1-yl)ethan-1-one] are 0.27 nM, 0.15 nM and 28 nM.
For the molecule `C[C@@H]1CN(CC(=O)N2c3cc(Cc4ccc(F)cc4)cnc3OC[C@@H]2COc2ccccc2)[C@@H](CN2[C@H](C)COC[C@H]2C)CN1` [Compound 40, 2-((2R,5R)-2-(((3R,5R)-3,5-dimethylmorpholino)methyl)-5-methylpiperazin-1-yl)-1-((S)-7-(4-fluorobenzyl)-2-(phenoxymethyl)-2,3-dihydro-1H-pyrido[2,3-b][1,4]oxazin-1-yl)ethan-1-one], the IC50 in assay [1] stood at 0.14 nM; in assay [2], 0.09 nM; in assay [3], 8.2 nM.
Take `C[C@@H]1CN(CC(=O)N2c3cc(Cc4ccc(F)cc4)cnc3OC[C@@H]2COc2ccccc2)[C@@H](CN2CCOC[C@H]2C)CN1` [Compound 41]: the results for the IC50 in assay [1], in assay [2] and in assay [3] were 0.24 nM, 0.11 nM and 12 nM, respectively.
The like results for `C[C@@H]1CN(CC(=O)N2c3cc(Cc4ccc(F)cc4)cnc3OC[C@@H]2C2CCCCC2)[C@@H](CN2CCOC[C@H]2C)CN1` [Compound 42, 1-((S)-2-cyclohexyl-7-(4-fluorobenzyl)-2,3-dihydro-1H-pyrido[2,3-b][1,4]oxazin-1-yl)-2-((2R,5R)-5-methyl-2-(((R)-3-methylmorpholino)methyl)piperazin-1-yl)ethan-1-one] were, in that order, 0.52 nM, 0.34 nM and 25 nM.
In the same order, the values of `C[C@@H]1CN(CC(=O)N2c3cc(Cc4ccc(F)cc4)cnc3OC[C@@H]2C2CCCCC2)[C@@H](CN2[C@H](C)COC[C@H]2C)CN1` [Compound 43, 1-((S)-2-cyclohexyl-7-(4-fluorobenzyl)-2,3-dihydro-1H-pyrido[2,3-b][1,4]oxazin-1-yl)-2-((2R,5R)-2-(((3R,5R)-3,5-dimethylmorpholino)methyl)-5-methylpiperazin-1-yl)ethan-1-one] are 0.27 nM, 0.23 nM and 23 nM.
On to `C[C@@H]1CN(CC(=O)N2c3cc(Cc4ccc(F)cc4)cnc3OC[C@@H]2c2ccccc2)[C@@H](CN2[C@H](C)COC[C@H]2C)CN1` [Compound 44], for which the results for the concentration for half-maximal inhibition (IC50) in assay [1], in assay [2] and in assay [3] were 0.93 nM, 0.36 nM and 20 nM, respectively.
In the same order, the values of `C[C@@H]1CN(CC(=O)N2c3cc(Cc4ccc(F)cc4)cnc3OC[C@@H]2c2ccccc2)[C@@H](CN2CCOC[C@H]2C)CN1` [Compound 45, 1-((S)-7-(4-fluorobenzyl)-2-phenyl-2,3-dihydro-1H-pyrido[2,3-b][1,4]oxazin-1-yl)-2-((2R,5R)-5-methyl-2-(((R)-3-methylmorpholino)methyl)piperazin-1-yl)ethan-1-one] are 0.65 nM, 0.34 nM and 8.5 nM.
The like results for `CC(C)[C@H]1COc2ncc(Cc3ccc(F)cc3)cc2N1C(=O)CN1C[C@@H](C)NC[C@@H]1CN1[C@H](C)COC[C@H]1C` [Compound 46, 2-((2R,5R)-2-(((3R,5R)-3,5-dimethylmorpholino)methyl)-5-methylpiperazin-1-yl)-1-((S)-7-(4-fluorobenzyl)-2-isopropyl-2,3-dihydro-1H-pyrido[2,3-b][1,4]oxazin-1-yl)ethan-1-one] were, in that order, 0.47 nM, 0.24 nM and 63 nM.
